Calls of active or inactive are those of the source. The rule behind the calls is not given here.
Legend:
[1] = target: Tubulin alpha chain (Sus scrofa) (UniProt P02550); experiment: (§1) Concentration which causes polymerization of 50 % of the tubulin present, in 15 min at 37 C, as a ratio in comparison wth taxol (taxol ED50 = 0.7 to 0.8 uM); assay type: functional
[2] = tested on: B16; experiment: Compound was evaluated for the cytotoxicity against B16 melanoma cells after 40h incubation expressed as ratio relative to that of taxol; NA - No cytotoxicity; assay type: functional, cell-based; conditions: Mus musculus
[3] = tested on: B16; experiment: Compound was evaluated for the cytotoxicity against B16 melanoma cells after 40h incubation expressed as ratio relative to that of taxol; assay type: functional, Mus musculus
[4] = as §1; assay type: functional

Tubulin alpha chain (Sus scrofa), sequence (P02550 whole entry, looked up): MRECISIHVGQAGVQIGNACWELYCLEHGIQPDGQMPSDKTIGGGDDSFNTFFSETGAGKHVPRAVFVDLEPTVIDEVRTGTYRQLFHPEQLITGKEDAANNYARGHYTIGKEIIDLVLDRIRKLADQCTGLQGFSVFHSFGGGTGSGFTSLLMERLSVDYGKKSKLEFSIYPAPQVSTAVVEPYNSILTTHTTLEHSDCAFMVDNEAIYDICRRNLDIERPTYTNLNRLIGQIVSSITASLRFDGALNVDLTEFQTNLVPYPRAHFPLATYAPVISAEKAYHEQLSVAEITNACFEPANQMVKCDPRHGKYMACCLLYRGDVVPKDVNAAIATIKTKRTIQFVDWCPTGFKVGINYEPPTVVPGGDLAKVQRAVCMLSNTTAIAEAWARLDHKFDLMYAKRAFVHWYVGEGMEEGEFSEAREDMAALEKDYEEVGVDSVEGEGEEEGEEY

Q: With `CC(=O)O[C@H]1C(=O)[C@@]2(C)[C@H]([C@H](OC(=O)c3ccccc3)[C@]3(O)C[C@H](OC(=O)[C@H](O)[C@@H](NC(=O)c4ccccc4)c4ccc(C(F)(F)F)cc4)C(C)=C1C3(C)C)[C@]1(OC(C)=O)CO[C@@H]1C[C@@H]2O` as the compound, how does the Ratio [1] read?
A: inactive

Q: And the “ED50 / ED50 (taxol)” value [2]?
A: inactive

Q: With `CC(=O)O[C@H]1C(=O)[C@@]2(C)[C@H]([C@H](OC(=O)c3ccccc3)[C@]3(O)C[C@H](OC(=O)[C@H](O)[C@@H](NC(=O)c4ccc(C)cc4)c4ccccc4)C(C)=C1C3(C)C)[C@]1(OC(C)=O)CO[C@@H]1C[C@@H]2O` as the compound, how does the Ratio [1] read?
A: 1.6

Q: What about the “ED50 / ED50 (taxol)” value [3] of the same compound?
A: 1.4

Q: With `CC(=O)O[C@H]1C(=O)[C@@]2(C)[C@H]([C@H](OC(=O)c3ccccc3)[C@]3(O)C[C@H](OC(=O)[C@H](O)[C@@H](NC(=O)c4ccc(C(F)(F)F)cc4)c4ccccc4)C(C)=C1C3(C)C)[C@]1(OC(C)=O)CO[C@@H]1C[C@@H]2O` as the compound, how does the Ratio [1] read?
A: 6

Q: And the “ED50 / ED50 (taxol)” value [3]?
A: 17.7

Q: For `CC(=O)O[C@H]1C(=O)[C@@]2(C)[C@H]([C@H](OC(=O)c3ccccc3)[C@]3(O)C[C@H](OC(=O)[C@H](O)[C@@H](NC(=O)c4ccccc4)c4ccc(C)cc4)C(C)=C1C3(C)C)[C@]1(OC(C)=O)CO[C@@H]1C[C@@H]2O`, which Ratio [1] is on record?
A: 2.4

Q: And the “ED50 / ED50 (taxol)” value [3]?
A: 3

Q: For `CC(=O)O[C@H]1C(=O)[C@@]2(C)[C@H]([C@H](OC(=O)c3ccccc3)[C@]3(O)C[C@H](OC(=O)[C@H](O)[C@@H](NC(=O)c4ccccc4)c4ccccc4)C(C)=C1C3(C)C)[C@]1(OC(C)=O)CO[C@@H]1C[C@@H]2O`, which Ratio [4] is on record?
A: 0.7

Reference: ChEMBL document CHEMBL1126392, “Semisynthesis and biological activity of taxol analogues: baccatin III 13-(N-benzoyl-(2R,3S)-3-(p-tolyl)isoserinate), baccatin III 13-(N-(p-toluoyl)-2R,3S)-3-phenylisoserinate), baccatin III 13-(N-benzoyl-(2R,3S)-3-(p-trifluoromethylphenyl)isoserinate), and baccatin III …” (1992)
